Measurements as given in patent US7361690B2, “Compositions and methods for the treatment of urinary incontinence” (Gruenenthal GmbH, priority 2000, dated 2008).
Marks after values point to notes of the source that are not given here.

Key:
[1] = system: female Sprague-Dawley rats; assay: Cystometry tests on conscious fresh rats; format: in vivo, rat; settings: effect maximum, mean of 3 micturition cycles
Description: Cystometry investigations were carried out on fresh female Sprague-Dawley rats according to the method of Ishizuka et. al. ((1997), Naunyn-Schmiedeberg's Arch. Pharmacol. 355: 787-793). Three days after implantation of bladder and venous catheters the animals were investigated in the conscious state while freely moving. The bladder catheter was connected to a pressure gauge and an injection pump. The animals were placed in metabolic cages that enable the volume of urine to be measured. Physiological saline solution was infused (10 ml/hour) into the emptied bladder and the bladder pressure and volume of urine were continuously recorded. After a stabilization phase a 20-minute phase was recorded that was characterized by normal, reproducible micturition cycles. The following parameters among others were measured: • threshold pressure (TP), bladder pressure immediately before micturition, • bladder capacity (BC), residual volume after prior micturition plus volume of infused solution during the filling phase, • intercontraction interval (ICI), the time interval between consecutive micturition.
An increase in the threshold pressure (TP) indicates an important therapeutic effect in one of the medical conditions suitable for treatment with the method of the invention. Also, the intercontraction interval (ICI) is an important parameter for measuring the physiological effectiveness of a substance in the treatment of urinary incontinence, as is the bladder capacity (BC). In this connection, on account of the widely differing causes of the symptoms of these disease patterns it is not necessary to influence positively all three parameters in order for a medicament to be effective.
After recording three reproducible micturition cycles to provide a baseline value, the test substances 24 (1.0; 3.0; 5.0 mg/kg), 25 (1.5 mg/kg) and 26 (3.0 mg/kg) in a vehicle comprising 0.9% NaCl were applied intravenously and the effect on the cystometric parameters was recorded at 90 to 120 minutes. In the effect maximum the mean value of 3 micturition cycles was determined and recorded as a percentage change compared to the baseline value (Table 1).

[2] = system: narcotized ventilated rats; assay: Cystometry investigations in narcotized fresh rats (suppression of rhythmic spontaneous bladder contractions); format: in vivo, rat; settings: intravenous, cumulative, lowest dose at which contractions disappeared for the first time over a period of 10 minutes
Description: The cystometric investigation was carried out on fresh female rats according to the method of Kimura et al. (Kimura et al., 1996, Int. J. Urol. 3: 218-227). The abdomen of narcotized ventilated rats is opened and the ureter is ligated. The urine is drawn off from the kidneys. A catheter is inserted into the bladder and secured in place. […] The test substance is applied intravenously in a cumulative manner after stable starting values were reached. An effect on the bladder function is manifested by the suppression of the spontaneous contractions. The disappearance of the contractions over a period of 10 minutes serves as a parameter for their suppression.
With all the substances listed there was a measurable suppression of the spontaneous contractions in rats.

Compound	BC Bladder Capacity, change compared to the baseline value ([1]; 3.0 mg/kg iv)	ICI Inter-Contraction Interval, change compared to the baseline value ([1]; 3.0 mg/kg iv)	TP Threshold Pressure, change compared to the baseline value ([1]; 3.0 mg/kg iv)	Mean Value of Lowest Dose for Contraction Suppression [2]	also measured
COc1cccc([C@@]2(O)C[C@H](O)CC[C@@H]2CN(C)C)c1.Cl (racemic) [Compound 24, (1RS,3RS,6RS)-6-dimethylaminomethyl-1-(3-methoxyphenyl)-cyclohexane-1,3-diol, hydrochloride]	−16.0%*	−16%*	+94.0%**	–	BC Bladder Capacity, change compared to the baseline value ([1]; 1.0 mg/kg iv): −8.0%; ICI Inter-Contraction Interval, change compared to the baseline value ([1]; 1.0 mg/kg iv): −15%**; TP Threshold Pressure, change compared to the baseline value ([1]; 1.0 mg/kg iv): +44.0%***; BC Bladder Capacity, change compared to the baseline value ([1]; 5.0 mg/kg iv): −26.0%; ICI Inter-Contraction Interval, change compared to the baseline value ([1]; 5.0 mg/kg iv): −21.2%; TP Threshold Pressure, change compared to the baseline value ([1]; 5.0 mg/kg iv): +69.0%*
CN(C)C[C@H]1CC[C@@H](O)C[C@]1(O)c1cccc(O)c1.Cl (racemic) [Compound 26, (1RS,3RS,6RS)-6-dimethylaminomethyl-1-(3-hydroxyphenyl)-cyclohexane-1,3-diol, hydrochloride]	+29.0%***	+27.0%*	+86.0%***	–	–
COc1cccc([C@@]2(O)C[C@@H](O)CC[C@@H]2CN(C)C)c1.Cl (racemic) [Compound 27, (1RS,3SR,6RS)-6-dimethylaminomethyl-1-(3-methoxyphenyl)-cyclohexane-1,3-diol, hydrochloride]	–	–	–	115 (n = 2) mg/kg	–
COc1cccc([C@@]2(O)C[C@H](O)CC[C@@H]2CN(C)C)c1.Cl [Compound 25, (+)-(1R,3R,6R)-6-dimethylaminomethyl-1-(3-methoxyphenyl)-cyclohexane-1,3-diol, hydrochloride]	–	–	–	–	BC Bladder Capacity, change compared to the baseline value ([1]; 1.5 mg/kg iv): −14.0%*; ICI Inter-Contraction Interval, change compared to the baseline value ([1]; 1.5 mg/kg iv): −9.0%; TP Threshold Pressure, change compared to the baseline value ([1]; 1.5 mg/kg iv): +62.0%*
C[C@H]1CC[C@H](CN(C)C)[C@@](O)(c2cccc(O)c2)C1.Cl [Compound 28, (+)-(1R,2R,5S)-3-(2-dimethylaminomethyl-1-hydroxy-5-methylcyclohexyl)-phenol, hydrochloride]	–	–	–	16.7 (n = 3) mg/kg	–
(1RS,2RS,5RS)-3-(2-dimethylaminomethyl-1-hydroxy-5-trifluoromethylcyclohexyl)-phenol,hydrochloride [Compound 29]	–	–	–	23.3 (n = 3) mg/kg	–
